Test results from patent US9682059B2 (priority 2013, dated 2017).
Read-outs that look alike come from different tables or passages of the source.

What was measured:
[1] = test system: Lithium-pilocarpine induced status epilepticus; test: animal or person; format: in vivo, rat; settings: for responders at 46 mg/kg: Rattus norvegicus, iv, read-out: Protection %; for Protection %: rat, in vivo
[2] = test system: PTZ-induced clonic seizure; test: animal or person; format: in vivo, mice; settings: Mus musculus, ip; for responders at 20.4 mg/kg: read-out: Protection %; for ED50: read-out: PTZ test ED50
[3] = test system: neurotoxicity (rotarod); test: Neurotoxicity (rotarod); format: in vivo; settings: mice, protective index
Description: The measurement of neurotoxicity of the test compounds was conducted by the method of Dunham and Miya [Dunham, N. W. and Miya, T. S. 1957. A note on a simple apparatus for detecting neurological deficit in rats and mice. J. Am. Pharm. Assoc. (Baltimore) 46: 208-209]. In the method, motor abilities of the test animals can be determined by observing whether the test animals can walk without falling from a rotator, thereby determining the value of neurotoxicity of each compound. […] They were pre-trained on the rotarod (Rotarod; Columbus instrument, rota-max, USA) at 6 rpm for 5 min 24 hr prior to the test. The peak time was determined by administration test material's random dose for 0.5, 1, 2, 4 hour. […] The ratio of TD50 to ED50(TD50/ED50) is called as a protective index, and useful as a parameter for comparison of pharmaceutical efficacy and neurotoxicity.

[4] = test system: benzodiazepine-resistant status epilepticus; test: animal or person; format: in vivo; settings: Rattus norvegicus, ip, 10 min
[5] = test system: lamotrigene-resistant amygdala kindled rat; test: animal or person; format: in vivo; settings: ip
[6] = test system: 6 Hz-induced seizure; test: animal or person; format: in vivo, mice; settings: ip
[7] = test system: PTZ-induced clonic seizure; test: animal or person; format: in vivo, rats; settings: Rattus norvegicus, ip
[8] = test system: maximal electroshock seizure; test: animal or person; format: in vivo, mice
[9] = test system: Lithium-pilocarpine induced status epilepticus; test: animal or person; format: in vivo; settings: Rattus norvegicus, ip, 1.5 h, read-out: Protection %

SMILES	responders at 46 mg/kg [1] [%]	responders at 20.4 mg/kg [2] [%]	also measured
CC(C)NC(=O)O[C@H](C)[C@H](O)c1ccccc1Cl (racemic) [Compound 31, 1-(2-chlorophenyl)-1-hydroxypropyl-2-N-isopropylcarbamate]	100	83.3	
CCCNC(=O)O[C@@H](C)[C@@H](O)c1ccccc1Cl [Compound 23, 1-(2-chlorophenyl)-(R)-1-hydroxypropyl-(R)-2-N-propylcarbamate]		50	
CC(C)[C@H](OC(N)=O)[C@@H](O)c1ccccc1Cl [Compound 9, 1-(2-chlorophenyl)-(8)-1-hydroxy-3-methyl-butyl-(8)-2-carbamate]		33.3	
C[C@H](OC(N)=O)[C@@H](O)c1ccccc1F [Compound 63, 1-(2-fluorophenyl)-(S)-1-hydroxypropyl-(S)-2-carbamate]	50	50	
CC[C@H](OC(N)=O)[C@@H](O)c1ccc(Cl)cc1Cl [Compound 39, 1-(2,4-dichlorophenyl)-(S)-1-hydroxybutyl-(S)-2-carbamate]			ED50 [2]: 24.3 mg/kg
CC(OC(N)=O)C(O)c1ccccc1Cl (racemic) [Compound 3, 1-(2-chlorophenyl)-1-hydroxypropyl-2-carbamate]			PI(TD50/ED50 in MES) [3]: 12.0
C[C@H](OC(N)=O)[C@@H](O)c1ccc(Cl)cc1Cl [Compound 36, 1-(2,4-dichlorophenyl)-(S)-1-hydroxypropyl-(S)-2-carbamate]		33.3	
CC(C)[C@H](OC(N)=O)[C@@H](O)c1c(Cl)cccc1Cl [Compound 42, 1-(2,6-dichlorophenyl)-(S)-1-hydroxy-3-methyl-butyl-(S)-2-carbamate]		50	
C[C@H](OC(N)=O)[C@@H](O)c1ccccc1Cl [Compound 1, 1-(2-chlorophenyl)-(S)-1-hydroxypropyl-(S)-2-carbamate]			ED50 [4]: 96.9 mg/kg; ED50 ([5]; Rattus norvegicus): 17 mg/kg; Seizure Score ([5]; rat, in vivo): 2.0 ± 0.7(Control: 5.0 ± 0.0); ED50 ([6]; Mus musculus): 14.6 mg/kg; ED50 ([6]; mouse, in vivo): 13.66 mg/kg; PI(TD50/ED50 in MES) [3]: 16.8
C[C@@H](OC(N)=O)[C@H](O)c1c(Cl)cccc1Cl [Compound 46, 1-(2,6-dichlorophenyl)-(R)-1-hydroxypropyl-(R)-2-carbamate]	50	50	
C[C@H](OC(N)=O)[C@@H](O)c1cccc(Cl)c1Cl [Compound 38, 1-(2,3-dichlorophenyl)-(S)-1-hydroxypropyl-(S)-2-carbamate]	50	50	
CC[C@H](OC(N)=O)[C@@H](O)c1ccccc1I [Compound 67, 1-(2-iodophenyl)-(S)-1-hydroxybutyl-(S)-2-carbamate]	100		ED50 [2]: 23.1 mg/kg; responders at 30 mg/kg ([7]; read-out: Protection %): 33.3%
CNC(=O)O[C@H](C)[C@H](O)c1ccccc1Cl (racemic) [Compound 29, 1-(2-chlorophenyl)-1-hydroxypropyl-2-N-methylcarbamate]		33.3	
CCCNC(=O)O[C@H](C)[C@H](O)c1ccccc1Cl (racemic) [Compound 30, 1-(2-chlorophenyl)-1-hydroxypropyl-2-N-propylcarbamate]		33.3	Protection % ([8]; mouse, in vivo): 200 ^a(25%)
C[C@H](OC(=O)NC1CC1)[C@@H](O)c1ccccc1Cl (single isomer, unassigned) [Compound 25]		66.7	responders at 60 mg/kg [9]: 100%; Protection % [1]: ^a46 (100%)
C[C@@H](OC(N)=O)[C@@H](O)c1ccccc1Cl [Compound 4, 1-(2-chlorophenyl)-(S)-1-hydroxypropyl-(R)-2-carbamate]	100		ED50 [2]: 26.7 mg/kg; responders at 30 mg/kg ([7]; read-out: Protection %): 50%
CNC(=O)O[C@@H](C)[C@@H](O)c1ccccc1Cl [Compound 15, 1-(2-chlorophenyl)-(S)-1-hydroxypropyl-(S)-2-N-methylcarbamate]	100		responders at 25 mg/kg ([7]; read-out: Protection %): 33.3%

SMILES	responders at 46 mg/kg [1] [%]	responders at 20.4 mg/kg [2] [%]	also measured
CCCC[C@H](OC(N)=O)[C@@H](O)c1ccc(Cl)cc1Cl [Compound 43, 1-(2,4-dichlorophenyl)-(S)-1-hydroxyhexyl-(S)-2-carbamate]			responders at 25 mg/kg ([7]; read-out: Protection %): 33.3%
C[C@H](OC(N)=O)[C@H](O)c1ccccc1Cl [Compound 5, 1-(2-chlorophenyl)-(R)-1-hydroxypropyl-(S)-2-carbamate]			PI(TD50/ED50 in MES) [3]: 3.3
CCC(OC(N)=O)C(O)c1ccccc1Cl (racemic) [Compound 8, 1-(2-chlorophenyl)-1-hydroxybutyl-2-carbamate]	50	50	
C[C@@H](OC(=O)NC1CC1)[C@H](O)c1ccccc1Cl (racemic) [Compound 32, 1-(2-chlorophenyl)-1-hydroxypropyl-2-N-cyclopropylcarbamate]	100	16.7	responders at 200 mg/kg ([8]; Mus musculus, po, read-out: Protection %): 100%
CC[C@H](OC(N)=O)[C@@H](O)c1c(Cl)cccc1Cl [Compound 40, 1-(2,6-dichlorophenyl)-(S)-1-hydroxybutyl-(S)-2-carbamate]	100	33.3	
C[C@@H](OC(N)=O)[C@H](O)c1ccccc1Cl [Compound 2, 1-(2-chlorophenyl)-(R)-1-hydroxypropyl-(R)-2-carbamate]	50		PI(TD50/ED50 in MES) [3]: 7.3; ED50 ([7]; read-out: PTZ test ED50): 51.9 mg/kg
CCCC[C@H](OC(N)=O)[C@@H](O)c1c(Cl)cccc1Cl [Compound 44, 1-(2,6-dichlorophenyl)-(S)-1-hydroxyhexyl-(S)-2-carbamate]		33.3	
CCCNC(=O)O[C@@H](C)[C@@H](O)c1ccccc1Cl [Compound 16, 1-(2-chlorophenyl)-(S)-1-hydroxypropyl-(S)-2-N-propylcarbamate]	100		responders at 30 mg/kg ([7]; read-out: Protection %): 33.3%
C[C@H](OC(=O)NC1CC1)[C@@H](O)c1ccccc1Cl [Compound 18, 1-(2-chlorophenyl)-(S)-1-hydroxypropyl-(R)-2-N-cyclopropylcarbamate]			Protection % [1]: ^a46 (66.7%); responders at 30 mg/kg ([7]; read-out: Protection %): 16.7%
CCCC[C@H](OC(N)=O)[C@@H](O)c1ccccc1Cl [Compound 12, 1-(2-chlorophenyl)-(S)-1-hydroxyhexyl-(S)-2-carbamate]		33.3	
C[C@H](OC(N)=O)[C@@H](O)c1ccccc1I [Compound 65, 1-(2-iodophenyl)-(S)-1-hydroxypropyl-(S)-2-carbamate]	100	100	
CCCCC(OC(N)=O)C(O)c1ccccc1Cl (racemic) [Compound 14, 1-(2-chlorophenyl)-1-hydroxyhexyl-2-carbamate]		16.7	
C[C@@H](OC(N)=O)[C@H](O)c1ccc(Cl)cc1Cl [Compound 45, 1-(2,4-dichlorophenyl)-(R)-1-hydroxypropyl-(R)-2-carbamate]	33.3	16.7	responders at 50 mg/kg ([7]; read-out: Protection %): 16.7%
CC[C@H](OC(N)=O)[C@@H](O)c1ccccc1Cl [Compound 6, 1-(2-chlorophenyl)-(S)-1-hydroxybutyl-(S)-2-carbamate]	100		ED50 [2]: 17.9 mg/kg; responders at 30 mg/kg ([7]; read-out: Protection %): 50%
C[C@H](OC(N)=O)[C@@H](O)c1c(Cl)cccc1Cl [Compound 37, 1-(2,6-dichlorophenyl)-(S)-1-hydroxypropyl-(S)-2-carbamate]	100		PI(TD50/ED50 in MES) [3]: 5.1; ED50 [2]: 25.7 mg/kg; responders at 30 mg/kg ([7]; read-out: Protection %): 50%
CCCC[C@@H](OC(N)=O)[C@H](O)c1ccccc1Cl [Compound 13, 1-(2-chlorophenyl)-(R)-1-hydroxyhexyl-(R)-2-carbamate]		50	
